Data: patent US9492471B2, “Methods of treating a disease or disorder associated with Bruton'S Tyrosine Kinase” (Celgene Avilomics Research, Inc., priority 2013, dated 2016)
Read-outs that look alike come from different tables or passages of the source.

How the values were obtained:
Assay in all cases: HotSpot kinase profiling
Format in all cases: biochemical
EPHB1 = target: T1, EPHB1 (Homo sapiens, UniProt P54762)
T1 construct: purchased Reaction Biology Corp
T1 sequence (P54762 18-984): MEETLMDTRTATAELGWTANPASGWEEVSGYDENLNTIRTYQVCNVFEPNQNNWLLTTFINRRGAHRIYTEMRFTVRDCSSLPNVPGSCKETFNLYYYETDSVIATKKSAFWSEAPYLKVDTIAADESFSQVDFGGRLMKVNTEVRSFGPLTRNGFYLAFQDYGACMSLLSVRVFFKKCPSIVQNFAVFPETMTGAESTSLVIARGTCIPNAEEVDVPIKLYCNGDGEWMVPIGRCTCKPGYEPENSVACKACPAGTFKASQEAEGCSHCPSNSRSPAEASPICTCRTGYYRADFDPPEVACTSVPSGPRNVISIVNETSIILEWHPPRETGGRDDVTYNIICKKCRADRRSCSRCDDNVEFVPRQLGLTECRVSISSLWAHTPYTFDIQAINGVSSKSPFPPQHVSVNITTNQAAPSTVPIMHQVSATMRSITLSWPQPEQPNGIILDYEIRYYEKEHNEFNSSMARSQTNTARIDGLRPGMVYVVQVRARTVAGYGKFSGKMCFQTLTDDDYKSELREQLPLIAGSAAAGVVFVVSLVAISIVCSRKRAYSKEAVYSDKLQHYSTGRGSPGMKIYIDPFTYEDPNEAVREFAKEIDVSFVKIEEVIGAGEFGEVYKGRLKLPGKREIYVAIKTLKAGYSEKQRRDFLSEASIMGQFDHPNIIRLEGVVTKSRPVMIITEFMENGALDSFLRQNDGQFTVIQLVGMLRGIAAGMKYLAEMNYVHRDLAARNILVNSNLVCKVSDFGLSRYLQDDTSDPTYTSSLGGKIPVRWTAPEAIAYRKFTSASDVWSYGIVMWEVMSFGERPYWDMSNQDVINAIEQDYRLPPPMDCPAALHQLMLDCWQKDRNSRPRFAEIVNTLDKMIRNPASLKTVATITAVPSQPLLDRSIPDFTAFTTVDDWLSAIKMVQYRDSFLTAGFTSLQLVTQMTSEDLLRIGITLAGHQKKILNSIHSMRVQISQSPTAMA
Method in brief: (§1)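 Percent inhibition, averaged when run more than once and referenced to a DMSO negative control, came from a radioactive filter-binding readout on P81 paper. Reactions of kinase with freshly made substrate and cofactors ran for 2 h at room temperature.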

SRPK2 = target: T2, SRPK2 (Homo sapiens, UniProt P78362)
T2 construct: purchased Reaction Biology Corp
T2 sequence (P78362 whole entry): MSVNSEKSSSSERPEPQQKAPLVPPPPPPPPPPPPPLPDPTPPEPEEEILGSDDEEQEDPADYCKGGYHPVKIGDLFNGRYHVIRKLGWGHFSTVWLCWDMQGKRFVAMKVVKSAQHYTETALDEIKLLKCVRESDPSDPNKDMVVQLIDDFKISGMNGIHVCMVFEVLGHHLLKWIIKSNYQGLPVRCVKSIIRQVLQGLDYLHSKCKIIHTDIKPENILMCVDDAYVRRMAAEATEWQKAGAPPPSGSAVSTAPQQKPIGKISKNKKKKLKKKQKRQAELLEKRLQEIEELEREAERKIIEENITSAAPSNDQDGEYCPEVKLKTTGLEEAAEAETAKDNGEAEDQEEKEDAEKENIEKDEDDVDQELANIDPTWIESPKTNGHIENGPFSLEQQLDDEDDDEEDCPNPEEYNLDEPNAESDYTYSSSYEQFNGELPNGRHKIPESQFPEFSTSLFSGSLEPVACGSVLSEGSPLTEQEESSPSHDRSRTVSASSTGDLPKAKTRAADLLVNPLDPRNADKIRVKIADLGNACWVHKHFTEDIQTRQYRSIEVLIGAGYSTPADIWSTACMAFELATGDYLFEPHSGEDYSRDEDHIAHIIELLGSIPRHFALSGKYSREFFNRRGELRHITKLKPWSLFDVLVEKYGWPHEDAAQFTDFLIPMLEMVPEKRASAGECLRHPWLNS
Method in brief: as §1

SSTK/TSSK6 = target: T3, SSTK/TSSK6 (Homo sapiens, UniProt Q9BXA6)
T3 construct: purchased Reaction Biology Corp
T3 sequence (Q9BXA6 whole entry): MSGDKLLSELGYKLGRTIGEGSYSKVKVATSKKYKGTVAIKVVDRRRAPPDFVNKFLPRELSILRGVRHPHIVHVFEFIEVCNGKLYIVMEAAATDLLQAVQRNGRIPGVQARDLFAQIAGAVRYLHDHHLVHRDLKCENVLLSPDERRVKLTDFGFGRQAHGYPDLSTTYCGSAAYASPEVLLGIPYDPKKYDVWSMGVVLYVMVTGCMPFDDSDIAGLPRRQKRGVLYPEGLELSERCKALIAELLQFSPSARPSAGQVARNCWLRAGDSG
Method in brief: as §1

TLK1 = target: T4, TLK1 (Homo sapiens, UniProt Q9UKI8)
T4 construct: purchased Reaction Biology Corp
T4 sequence (Q9UKI8 1-766): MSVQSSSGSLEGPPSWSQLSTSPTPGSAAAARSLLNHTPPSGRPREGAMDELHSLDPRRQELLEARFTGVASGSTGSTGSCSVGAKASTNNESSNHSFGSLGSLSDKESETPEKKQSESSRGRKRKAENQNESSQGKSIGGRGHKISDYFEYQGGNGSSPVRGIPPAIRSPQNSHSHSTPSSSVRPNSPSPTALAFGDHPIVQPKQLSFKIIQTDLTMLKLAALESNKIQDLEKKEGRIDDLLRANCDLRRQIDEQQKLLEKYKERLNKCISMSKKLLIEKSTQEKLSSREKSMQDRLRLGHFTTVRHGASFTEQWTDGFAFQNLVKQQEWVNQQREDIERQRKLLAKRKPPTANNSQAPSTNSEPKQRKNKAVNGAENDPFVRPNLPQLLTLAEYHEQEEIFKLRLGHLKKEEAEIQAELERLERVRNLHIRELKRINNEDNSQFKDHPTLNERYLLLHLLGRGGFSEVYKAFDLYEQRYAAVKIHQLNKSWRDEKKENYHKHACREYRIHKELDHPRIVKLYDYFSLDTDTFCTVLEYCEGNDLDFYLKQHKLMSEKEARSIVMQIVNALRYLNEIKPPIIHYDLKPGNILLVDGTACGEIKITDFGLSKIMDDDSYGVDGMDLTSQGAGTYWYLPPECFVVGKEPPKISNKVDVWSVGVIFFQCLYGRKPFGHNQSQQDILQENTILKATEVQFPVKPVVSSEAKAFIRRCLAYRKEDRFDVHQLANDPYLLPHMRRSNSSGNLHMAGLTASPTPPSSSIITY
Method in brief: as §1

WNK2 = target: T5, WNK2 (Homo sapiens, UniProt Q9Y3S1)
T5 construct: purchased Reaction Biology Corp
T5 sequence (Q9Y3S1 whole entry): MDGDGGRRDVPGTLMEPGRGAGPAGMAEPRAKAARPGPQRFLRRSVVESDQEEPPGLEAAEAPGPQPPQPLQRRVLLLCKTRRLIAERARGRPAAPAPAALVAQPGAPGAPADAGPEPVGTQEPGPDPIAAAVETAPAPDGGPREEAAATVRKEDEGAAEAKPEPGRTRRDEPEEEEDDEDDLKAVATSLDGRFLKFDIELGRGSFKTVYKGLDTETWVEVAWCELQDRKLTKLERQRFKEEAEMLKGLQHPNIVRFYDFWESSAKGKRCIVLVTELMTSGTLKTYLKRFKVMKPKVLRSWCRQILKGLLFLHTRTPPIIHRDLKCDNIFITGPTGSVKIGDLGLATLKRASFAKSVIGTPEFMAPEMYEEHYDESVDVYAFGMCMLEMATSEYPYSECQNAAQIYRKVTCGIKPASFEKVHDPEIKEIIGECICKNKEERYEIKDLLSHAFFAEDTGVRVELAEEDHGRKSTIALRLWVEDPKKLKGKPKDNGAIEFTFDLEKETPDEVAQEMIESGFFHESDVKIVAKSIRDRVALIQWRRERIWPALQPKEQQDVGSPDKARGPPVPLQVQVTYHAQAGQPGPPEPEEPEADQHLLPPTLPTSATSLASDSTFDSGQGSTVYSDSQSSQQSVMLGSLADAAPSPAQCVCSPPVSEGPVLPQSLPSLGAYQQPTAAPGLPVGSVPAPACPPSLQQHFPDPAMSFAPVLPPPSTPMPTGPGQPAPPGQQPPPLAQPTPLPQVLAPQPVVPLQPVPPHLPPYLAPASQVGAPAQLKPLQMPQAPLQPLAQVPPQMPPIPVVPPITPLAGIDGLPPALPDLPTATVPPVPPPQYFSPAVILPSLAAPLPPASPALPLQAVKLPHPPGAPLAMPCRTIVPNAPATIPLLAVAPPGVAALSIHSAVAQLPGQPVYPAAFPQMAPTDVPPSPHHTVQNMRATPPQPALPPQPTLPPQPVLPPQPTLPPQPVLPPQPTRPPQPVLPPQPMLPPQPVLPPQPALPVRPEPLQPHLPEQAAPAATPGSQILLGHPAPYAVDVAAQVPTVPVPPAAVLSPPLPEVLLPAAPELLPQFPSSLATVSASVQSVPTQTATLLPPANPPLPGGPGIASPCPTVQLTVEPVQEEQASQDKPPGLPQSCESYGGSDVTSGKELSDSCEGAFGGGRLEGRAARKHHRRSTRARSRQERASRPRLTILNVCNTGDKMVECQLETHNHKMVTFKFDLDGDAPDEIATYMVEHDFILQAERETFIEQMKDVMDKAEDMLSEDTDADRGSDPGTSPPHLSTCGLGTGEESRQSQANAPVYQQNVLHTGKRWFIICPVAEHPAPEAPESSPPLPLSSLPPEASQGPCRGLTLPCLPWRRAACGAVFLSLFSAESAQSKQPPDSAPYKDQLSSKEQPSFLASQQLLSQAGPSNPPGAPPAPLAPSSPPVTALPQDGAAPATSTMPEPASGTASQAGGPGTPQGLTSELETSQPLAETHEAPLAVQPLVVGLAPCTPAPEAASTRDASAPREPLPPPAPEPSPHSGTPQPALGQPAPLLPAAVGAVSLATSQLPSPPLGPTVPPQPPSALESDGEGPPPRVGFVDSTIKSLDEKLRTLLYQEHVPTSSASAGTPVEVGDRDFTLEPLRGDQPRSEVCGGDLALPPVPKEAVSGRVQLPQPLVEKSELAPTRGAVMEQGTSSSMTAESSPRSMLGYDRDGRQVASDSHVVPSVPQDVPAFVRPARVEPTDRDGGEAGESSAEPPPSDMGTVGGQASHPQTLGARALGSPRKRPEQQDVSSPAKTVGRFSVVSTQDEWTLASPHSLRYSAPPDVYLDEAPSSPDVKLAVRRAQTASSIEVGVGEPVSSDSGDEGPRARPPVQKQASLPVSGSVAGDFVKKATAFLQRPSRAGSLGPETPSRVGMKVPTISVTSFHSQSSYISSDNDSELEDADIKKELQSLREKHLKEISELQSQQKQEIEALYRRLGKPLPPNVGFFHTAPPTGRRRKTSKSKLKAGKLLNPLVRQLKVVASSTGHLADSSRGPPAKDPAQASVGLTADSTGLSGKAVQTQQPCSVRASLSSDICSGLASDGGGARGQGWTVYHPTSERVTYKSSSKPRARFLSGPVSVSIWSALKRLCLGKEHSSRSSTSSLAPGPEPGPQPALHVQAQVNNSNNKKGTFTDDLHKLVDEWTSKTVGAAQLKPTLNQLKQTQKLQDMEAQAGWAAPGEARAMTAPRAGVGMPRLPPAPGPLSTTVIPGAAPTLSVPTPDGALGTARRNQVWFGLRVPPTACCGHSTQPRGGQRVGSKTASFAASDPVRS
Method in brief: as §1

[1] = read-out: % Enzyme Activity (relative to DMSO controls) Run 1
[2] = read-out: % Enzyme Activity (relative to DMSO controls) Run 2

C=CC(=O)Nc1cccc(Nc2nc(Nc3ccc(OCCOC)c(F)c3)ncc2F)c1 [Compound 2]
inhibition at 3 µM (EPHB1): 20.4%
remaining activity at 3 µM (EPHB1; [1]): 79.5%
remaining activity at 3 µM (EPHB1; [2]): 79.7%
inhibition at 3 µM (SRPK2): 9.73%
remaining activity at 3 µM (SRPK2; [1]): 90.9%
remaining activity at 3 µM (SRPK2; [2]): 89.6%
inhibition at 3 µM (SSTK/TSSK6): -3.6%
remaining activity at 3 µM (SSTK/TSSK6; [1]): 107%
remaining activity at 3 µM (SSTK/TSSK6; [2]): 99.8%
inhibition at 3 µM (TLK1): -2.91%
remaining activity at 3 µM (TLK1; [1]): 102%
remaining activity at 3 µM (TLK1; [2]): 103%
inhibition at 3 µM (WNK2): 6.19%
remaining activity at 3 µM (WNK2; [1]): 92.3%
remaining activity at 3 µM (WNK2; [2]): 95.3%
